Measured values taken from patent US12390437B2, “Itaconic acid derivatives and uses thereof intreating an inflammatory disease or a disease associated with an undesirable immune response” (Sitryx Therapeutics Limited, priority 2019, dated 2025).
Structures can show the parent of a compound that is named as a salt.

What follows are compounds tested on IL-6 cytokine output from isolated primary human monocytes (assay: Primary human monocyte AlphaLISA IL-6 cytokine assay). Settings: CD14+ primary human monocytes, LPS 24 hr then Nigericin 1 hour.
Type: cell-based
Description: Measuring Inhibitory Effects on IL-1β and IL-6 Cytokine Output from Isolated Primary Human Monocytes
The cytokine inhibition profiles of compounds of formula (IW-1) were determined in a CD14^+ isolated primary human monocyte cell assay. All assays were performed in RPMI-1640 growth medium (Gibco), supplemented with heat-inactivated fetal bovine serum (FBS) and 1% penicillin-streptomycin unless specified otherwise. The IL-1β and IL-6 cytokine inhibition assays were each run in a background of isolated primary human monocyte cells as described below. All reagents described were from Sigma-Aldrich unless specified otherwise. Compounds were prepared as 100 mM DMSO stocks.
Primary peripheral blood mononuclear cells (PBMCs) were isolated from human whole blood. Following PBMC isolation, a CD14^+ monocyte isolation step was conducted whereby CD14^+ magnetic beads (Miltenyi Biotec) were incubated for 15 minutes with the PBMC suspension that was previously treated with ice cold T-cell isolation buffer (PBS, 0.5% BSA, 2 mM EDTA). Following bead incubation, the treated cell suspension was passed through a magnetic separation column designed to positively select for magnetically labelled cells. The isolated CD14^+ monocytes were subsequently plated at the appropriate cell density for the assay, prior to compound treatment on the day of plating. Working concentrations of compounds were prepared separately in RPMI-1640 only growth medium and pre-incubated with the cells for 30 minutes (37° C./5% CO2). Following the 30 minute compound pre-incubation, primary monocytes were treated with an appropriate concentration of LPS and subsequently incubated for a 24 hr period (37° C./5% CO2). An appropriate final concentration of Nigericin was then dispensed into the primary monocyte plates and incubated for 1 hour (37° C./5% CO2) before monocyte supernatants were harvested and collected in separate polypropylene 96-well holding plates prior to commencing the AlphaLISA cytokine assay.
Reagents from each of the IL-1β and IL-6 commercial kits (Perkin Elmer) were prepared and run according to the manufacturer's instructions. Subsequently, fluorescence signal was measured in a microplate reader (EnVision® Multilabel Reader, Perkin Elmer).
Percentage inhibition was calculated per cytokine by normalising the sample data to the high and low controls used within each plate (+/−LPS respectively). Percentage inhibition was then plotted against compound concentration and the 50% inhibitory concentration (IC50) was determined from the resultant concentration-response curve.

IC50 [µM]	SMILES
26.9	C=C(CC(=O)OCCCCCCCC)C(=O)OCCC#N [Example 1, 1-(2-cyanoethyl) 4-octyl 2-methylenesuccinate]
13.2	C=C(CC(=O)OCCCCCCCC)C(=O)OCCS(C)(=O)=O [Example 2, 1-(2-(methylsulfonyl)ethyl) 4-octyl 2-methylenesuccinate]
10.7	C=C(CC(=O)OCCCCCCCC)C(=O)OCCN1C(=O)CCC1=O [Example 9, 1-(2-(2,5-dioxopyrrolidin-1-yl)ethyl) 4-octyl 2-methylenesuccinate]
15.7	COC(=O)/C=C/C(=O)OC [dimethyl fumarate, reference compound]
